Measurements reported in publication PMC10141580, “Cyclic Dichalcogenides Extend the Reach of Bioreductive Prodrugs to Harness Thiol/Disulfide Oxidoreductases: Applications to seco-Duocarmycins Targeting the Thioredoxin System” (ACS Central Science, 2023).
Read-outs that look alike come from different tables or passages of the source.

Tested on: panel of 140 standard cancer cell lines
Assay: ProliFiler-140 cancer cell line screen (CellTiterGlo, 72 h)
Type: cell-based
Conditions: Homo sapiens
Method: Incubations were performed for 72 h before automated viability readout with CellTiterGlo (Figure 8).
End of Figure S11 (part 5 of 5): ProliFiler-140 cancer cell line screening for cytotoxicity of the prodrugs.
8-data-point dose response curves from CellTiter-Glo® viability readout.
ProliFiler-140 cell line panel part V

Work on `COc1cccc2c1C(=O)c1c(O)c3c(c(O)c1C2=O)C[C@@](O)(C(=O)CO)C[C@@H]3O[C@H]1C[C@H](N)[C@H](O)[C@H](C)O1` [doxorubicin, reference compound] yielded an IC50 (DV-90, DV90 (Lung), read-out: IC50 [M] (ProliFiler-140)) of 1.9e-08 M, an IC50 (Detroit 562, Detroit562 (Head/Neck), read-out: IC50 [M] (ProliFiler-140)) of 1.54e-07 M and an IC50 (EFM-19, EFM-19 (Breast), read-out: IC50 [M] (ProliFiler-140)) of 4.7e-07 M. For the same compound, the IC50 (EFO-27, EFO-27 (Ovary), read-out: IC50 [M] (ProliFiler-140)) was 2.9e-07 M, the IC50 (EPLC-272H, EPLC-272H (Lung), read-out: IC50 [M] (ProliFiler-140)) was 1.97e-07 M and the IC50 (HCC38, HCC38 (Breast), read-out: IC50 [M] (ProliFiler-140)) was 5.21e-08 M. It also gave an IC50 (HCC827, HCC827 (Lung), read-out: IC50 [M] (ProliFiler-140)) of 3.5e-07 M, an IC50 (HCC1569, HCC 1569 (Breast), read-out: IC50 [M] (ProliFiler-140)) of 7e-07 M and an IC50 (HCT-15, HCT-15 (Colon), read-out: IC50 [M] (ProliFiler-140)) of 6.43e-07 M. It also gave an IC50 (HCT-116, HCT116 (Colon), read-out: IC50 [M] (ProliFiler-140)) of 1.07e-07 M, an IC50 (HCT-116, HCT116, read-out: IC50) of 1.1e-07 M and an IC50 (HEC-1-A, HEC-1-A (Endometrium), read-out: IC50 [M] (ProliFiler-140)) of 3.3e-07 M. For the same compound, the IC50 (HEC-1B, HEC-1-B (Endometrium), read-out: IC50 [M] (ProliFiler-140)) was 2.4e-06 M, the IC50 (HL-60, HL-60 (Blood), read-out: IC50 [M] (ProliFiler-140)) was 2.6e-08 M and the IC50 (HL-60, HL-60, read-out: IC50) was 2.6e-08 M. It also gave an IC50 (HT-29, HT-29 (Colon), read-out: IC50 [M] (ProliFiler-140)) of 3.7e-07 M, an IC50 (HT-29, HT-29, read-out: IC50) of 3.7e-07 M and an IC50 (HT-1080, HT-1080 (Fibrosarcoma), read-out: IC50 [M] (ProliFiler-140)) of 7.6e-08 M. For the same compound, the IC50 (HeLa, HeLa (Cervix), read-out: IC50 [M] (ProliFiler-140)) was 8.04e-08 M, the IC50 (Hs746T, Hs 746T (Stomach), read-out: IC50 [M] (ProliFiler-140)) was 4e-07 M and the IC50 (HuTu80, Hutu 80 (Duodenum), read-out: IC50 [M] (ProliFiler-140)) was 1.87e-08 M. For the same compound, the IC50 (Huh-7, HuH7 (Liver), read-out: IC50 [M] (ProliFiler-140)) was 2.1e-07 M, the IC50 (Ishikawa, Ishikawa (Endometrium), read-out: IC50 [M] (ProliFiler-140)) was 7.7e-08 M and the IC50 (JIMT-1, JIMT-1 (Breast), read-out: IC50 [M] (ProliFiler-140)) was 1.3e-06 M. The IC50 (JVM-3, JVM-3 (Blood), read-out: IC50 [M] (ProliFiler-140)) was 3e-08 M, the IC50 (Jurkat, Jurkat (Blood), read-out: IC50 [M] (ProliFiler-140)) was 4.01e-08 M and the IC50 (K562, K562 (Blood), read-out: IC50 [M] (ProliFiler-140)) was 4.4e-07 M. The IC50 (KARPAS-299, KARPAS 299 (Blood), read-out: IC50 [M] (ProliFiler-140)) was 7.32e-08 M, the IC50 (KATO III, Kato III (Stomach), read-out: IC50 [M] (ProliFiler-140)) was 9e-07 M and the IC50 (KG-1a, KG-1 a (Blood), read-out: IC50 [M] (ProliFiler-140)) was 4.91e-07 M. It also gave an IC50 (KMS-12-BM, KMS-12-BM (Blood), read-out: IC50 [M] (ProliFiler-140)) of 1.65e-07 M, an IC50 (LN-229, LN229 (Brain), read-out: IC50 [M] (ProliFiler-140)) of 2.16e-07 M and an IC50 (LNCaP, LnCap (Prostate), read-out: IC50 [M] (ProliFiler-140)) of 1.9e-07 M. The IC50 (LoVo, LOVO (Colon), read-out: IC50 [M] (ProliFiler-140)) was 1.11e-07 M, the IC50 (MDA-MB-435, MDA MB 435 (Skin), read-out: IC50 [M] (ProliFiler-140)) was 4.8e-07 M and the IC50 (MDA-MB-468, MDA-MB-468 (Breast), read-out: IC50 [M] (ProliFiler-140)) was 4.7e-08 M. For the same compound, the IC50 (MEC1, MEC-1 (Blood), read-out: IC50 [M] (ProliFiler-140)) was 7.3e-08 M, the IC50 (MIA PaCa-2, Mia PaCA 2 (Pancreas), read-out: IC50 [M] (ProliFiler-140)) was 7.37e-08 M and the IC50 (MKN-1, MKN-1 (Stomach), read-out: IC50 [M] (ProliFiler-140)) was 5.2e-08 M. The IC50 (MKN-45, MKN-45 (Stomach), read-out: IC50 [M] (ProliFiler-140)) was 3.16e-07 M, the IC50 (MOLM-13, MOLM-13 (Blood), read-out: IC50 [M] (ProliFiler-140)) was 2.1e-08 M and the IC50 (MOLT-4, MOLT-4 (Blood), read-out: IC50 [M] (ProliFiler-140)) was 2.6e-08 M. For the same compound, the IC50 (MOLT-4, MOLT-4, read-out: IC50) was 2.6e-08 M, the IC50 (MV4-11, MV4-11 (Blood), read-out: IC50 [M] (ProliFiler-140)) was 4.3e-09 M and the IC50 (NALM-6, NALM-6 (Blood), read-out: IC50 [M] (ProliFiler-140)) was 2.3e-08 M. For the same compound, the IC50 (NCI-H82, NCI-H82 (Lung), read-out: IC50 [M] (ProliFiler-140)) was 6.2e-07 M, the IC50 (NCI-H292, NCI-H292 (Lung), read-out: IC50 [M] (ProliFiler-140)) was 7.2e-08 M and the IC50 (NCI-H441, NCI-H441 (Lung), read-out: IC50 [M] (ProliFiler-140)) was 3.49e-07 M. It also gave an IC50 (NCI-H460, H460 (Lung), read-out: IC50 [M] (ProliFiler-140)) of 2.6e-08 M, an IC50 (NCI-H838, NCI-H838 (Lung), read-out: IC50 [M] (ProliFiler-140)) of 1.5e-07 M and an IC50 (NCI-H1048, NCI-H1048 (Lung), read-out: IC50 [M] (ProliFiler-140)) of 3.2e-08 M. For the same compound, the IC50 (NCI-H1299, H1299 (Lung), read-out: IC50 [M] (ProliFiler-140)) was 2.23e-07 M, the IC50 (NCI-H1437, NCI-H1437 (Lung), read-out: IC50 [M] (ProliFiler-140)) was 1.39e-07 M and the IC50 (NCI-H1563, NCI-H1563 (Lung), read-out: IC50 [M] (ProliFiler-140)) was 5.4e-07 M. It also gave an IC50 (NCI-H1573, NCI-H1573 (Lung), read-out: IC50 [M] (ProliFiler-140)) of 3e-06 M, an IC50 (NCI-H1581, NCI-H1581 (Lung), read-out: IC50 [M] (ProliFiler-140)) of 1.47e-07 M and an IC50 (NCI-H1703, NCI-H1703 (Lung), read-out: IC50 [M] (ProliFiler-140)) of 9.2e-08 M. The IC50 (NCI-H1838, NCI-H1838 (Lung), read-out: IC50 [M] (ProliFiler-140)) was 2.5e-07 M.
